Laboratory results reported in paper PMC12147355, “Targeted destruction of follicle stimulating hormone receptor-positive cancer cells in vitro and in vivo by a lytic peptide Phor21-FSHβ conjugate” (Molecular Medicine, 2025).
Read-outs that look alike come from different tables or passages of the source. Ends that are not written are not given here.

Key:
[1] = tested on: HEK-293 xenografts; assay: HEK-293 (FSHR-negative) cell xenografts in athymic nude male mice; type: in vivo; conditions: 8 mg/kg/72 h, 21 days, n = 8–12
Description: (§1) All the mouse experiments were approved by the local ethics committee of the Medical University of Bialystok, Poland. Athymic nude males (Crl: NU(NCr)-Foxn1^nu, 8–10 weeks old, 20–23 g) purchased from Charles River Laboratories International, Inc. (Sulzfeld, Germany; RRID: SCR_003792) were housed two or three per cage and provided with sterilized pellet chow and water. The animals were maintained in a pathogen-free mouse colony at the Center of Experimental Medicine Animal Facility (Bialystok, Poland).
(§2) HEK293-FSHR, HEK-293, and LNCaP cells were treated with trypsin when they were nearly confluent and were harvested. The cells were centrifuged at 1100 rpm for 5 min and resuspended in sterile non-supplemented culture medium mixed 1:1 with the Matrigel® matrix (Corning, Corning, USA). The cell suspension (1 × 10^6 cells/0.2 ml - HEK293-FSHR and HEK-293 cells; 5 × 10^6 cells/0.2 ml – LNCaP cells) was injected subcutaneously into the interscapulum area. When the xenograft volume reached 150–200 mm^3 (5–8 days after implantation), the xenograft-bearing mice were randomly divided into treatment groups, as described in Suppl Table 2.
(§3) Three independent xenograft experiments were conducted. In the first set, we tested whether the Phor21-FSHβ33–53 C/S conjugate selectively targeted and destroyed FSHR-expressing HEK293-FSHR cells, using a proof-of-concept experiment. […]

[2] = tested on: LNCaP xenografts; assay: LNCaP cell xenografts in athymic nude male mice; type: in vivo; conditions: Phor21 8 mg/kg/72 h, Phor21-FSHβ 2 or 8 mg, 21 days; for growth of LNCaP xenografts (total xenograft volume at necropsy): CTX 5 mg/kg/48h, n = 10–12
Description: as §1, §2
Three independent xenograft experiments were conducted. In the first set, we tested whether the Phor21-FSHβ33–53 C/S conjugate selectively targeted and destroyed FSHR-expressing HEK293-FSHR cells, using a proof-of-concept experiment. CTX was used to inhibit FSH secretion, which competed with Phor21-FSHβ33–53 C/S for FSHR-binding sites (Suppl Table 2). In the second set of experiments, we tested the specificity of the Phor21-FSHβ33–53 C/S conjugate using FSHR-negative HEK293 cells xenografted into nude mice (Suppl Table 2). Finally, in the third set of in vivo experiments, we tested whether Phor21-FSHβ33–53 C/S conjugate treatment could inhibit the growth of human prostate cancer LNCaP cell xenografts (FSHR-negative cells) by destroying FSHR-positive endothelial cells in xenograft tissues, as reported previously (Radu et al. [2010]) (Suppl Table 2). Phor21-FSHβ33–53 C/S was later on addressed as Phor21-FSHβ. […]

[3] = mouse, in vivo
Method: (§6) In each experimental set, the mice were sacrificed 3 days after the last injection. Total blood was collected via heart puncture under isoflurane anesthesia. The animals were euthanized by cervical dislocation. Body weight, selected organs, xenograft weights/volumes, and sizes were recorded at the time of necropsy. The xenografts and testes were fixed in 10% neutral buffered formalin or snap-frozen in liquid nitrogen for further experiments.

[4] = Body and organ weights at necropsy; conditions: nude males xenografted with HEK293-FSHR cells, Fig. S4
Method: as §6

[5] = tested on: HEK293-FSHR xenografts; assay: HEK293-FSHR cell xenografts in athymic nude male mice; type: in vivo
Description: as §1, §2, §3

[6] = tested on: FSH; assay: Plasma FSH immunofluorometric assay in xenografted mice; type: in vivo; conditions: CTX 5 mg/kg/48h
Method: The plasma levels of FSH were analyzed via an immunofluorometric assay using the Delfia Enhancer system (PerkinElmer, Turku, Finland) according to the protocol described by van Casteren et al. (Casteren et al. [2000]). The FSH assay sensitivity was 0.1 µg/L, with an intra-assay CV of 4.3% and an interassay CV of 9.8% at 4.8 µg/L. The rat FSH standard (a gift from Dr. Albert Parlow from the National Institute of Diabetes and Digestive and Kidney Diseases, Bethesda, Maryland, USA) was diluted in Diluent II buffer (DELFIA Diluent II, PerkinElmer) to concentrations ranging from 50 ng/ml to 0.02 ng/ml for rat FSH. Enhanced fluorescence signals (DELFIA Enhancement Solution; PerkinElmer) were measured using a Victor^2 fluorometer (PerkinElmer).

[7] = Serum biochemical assay (Fuji Dri-Chem NX500); type: in vivo; conditions: HEK293-FSHR xenograft mice (n=8-9); Fig S7
Method: To quantify the serum levels of glucose, γ-glutamyltransferase (GGT), alanine aminotransferase (ALT) and aspartate aminotransferase (AST), biochemical assays were performed using Fuji Dri-Chem NX500 (Fujifilm Corporation®) according to the manufacturer’s instructions (Lei et al. [2021]).

[8] = tested on: HEK-293 cells; assay: CyQUANT cell proliferation assay, HEK-293 cells; type: cell-based, human; conditions: CTX 1, 5, 10, or 20 µM, 48 h; three independent experiments (n = 8/experiment)
Method: (§4) Cell proliferation was determined using a CyQUANT Cell Proliferation Assay (C7026, Life Technologies, Thermo Fisher Scientific). Prior to the experiments, HEK-293, HEK293-FSHR, and LNCaP cells were seeded in 96-well plates (7000 cells/well). After overnight incubation in the culture medium, the cells were starved for 4 h in basal non-supplemented DMEM/F12. […] After incubation, the medium was removed, and the plates with cells were frozen at −80 °C overnight. After thawing at room temperature (RT), 200 µl of CyQUANT GR dye/cell lysis buffer was added to each well and incubated for 5 min at room temperature (RT) in the dark. The fluorescence was read using a WALLAC Victor 2 1420 spectrophotometer (Perkin Elmer, Waltham, Massachusetts, USA) with ~ 480 nm excitation and ~ 520 nm emission maxima. The results were subtracted from a standard curve made from bacteriophage λ DNA (ranging from 50 pg/ml to 1.0 µg/ml) in CyQUANT GR/cell lysis buffer and are presented as absolute values.

[9] = tested on: HEK293-FSHR cells; assay: CyQUANT cell proliferation assay, HEK293-FSHR cells; type: cell-based, human; conditions: CTX 1, 5, 10, or 20 µM, 48 h; three independent experiments (n = 8/experiment)
Method: Cell proliferation was determined using a CyQUANT Cell Proliferation Assay (C7026, Life Technologies, Thermo Fisher Scientific). […] After overnight incubation in the culture medium, the cells were starved for 4 h in basal non-supplemented DMEM/F12. The cells were then treated for 48 h with rhFSH (10, 100, or 1000 IU/L) or cetrorelix (CTX) (1, 5, 10, or 20 µM; Sigma-Aldrich), and 2.5% FSC was used as a positive control. After incubation, the medium was removed, and the plates with cells were frozen at −80 °C overnight. After thawing at room temperature (RT), 200 µl of CyQUANT GR dye/cell lysis buffer was added to each well and incubated for 5 min at room temperature (RT) in the dark. The fluorescence was read using a WALLAC Victor 2 1420 spectrophotometer (Perkin Elmer, Waltham, Massachusetts, USA) with ~ 480 nm excitation and ~ 520 nm emission maxima.

[10] = tested on: LNCaP cells; assay: CyQUANT cell proliferation assay, LNCaP cells; type: cell-based, human; conditions: CTX 1, 5, 10, or 20 µM, 48 h; three independent experiments (n = 8/experiment)
Method: as §4

[11] = tested on: HEK-293 cells; assay: Caspase Glo 3/7 apoptosis assay, HEK-293 cells; type: cell-based, human; conditions: CTX 20 µM, 12 h
Method: (§5) Caspase 3/7 activity was assessed using a Caspase Glo 3/7 kit (Promega) according to the manufacturer’s protocol. In brief, cells were seeded at 10,000/well in a 96-well plate, attached overnight, and treated with vehicle (CTR) or CTX (20 µM) for 12 h. Staurosporin (STS, 0.5 µM) was used as a positive inducer of caspase3/7-mediated apoptosis. The absolute luminescence was normalized to the vehicle-treated control value.

[12] = tested on: HEK293-FSHR cells; assay: Caspase Glo 3/7 apoptosis assay, HEK293-FSHR cells; type: cell-based, human; conditions: CTX 20 µM, 12 h
Method: as §5

[13] = tested on: LNCaP cells; assay: Caspase Glo 3/7 apoptosis assay, LNCaP cells; type: cell-based, human; conditions: CTX 20 µM, 12 h
Method: as §5

In the case of “KFAKFAKKFAKFAKKFAKFAK-NH2 [Phor21, lytic peptide Phor21 backbone, triple heptade KFAKFAK]”, the “growth of HEK-293 xenografts (total xenograft volume at necropsy)” value [1] is reported as “did not affect the growth”, the “histology of LNCaP xenografts” value [2] is reported as “no changes” and the “growth of LNCaP xenografts (total xenograft volume at necropsy)” value [2] is reported as “no changes”. The “spleen weight / size” value [3] was “No significant differences”, the body weight [4] was “No significant differences” and the testis weight [4] was “No significant differences”.

For cetrorelix [CTX], the “histopathological analysis of xenograft tissues” value ([5]; histology, PARP1 staining) was “apoptosis”, the “xenograft growth compared with the control group (total xenograft volume at necropsy)” value ([5]; nude male mice, Phor21 8 mg/kg/72 h, Phor21-FSHβ 2 or 8 mg/kg/72 h, CTX 5 mg/kg/48h, 21 days, n = 10–12) was “reduced xenograft growth” and the “growth of LNCaP xenografts (total xenograft volume at necropsy)” value [2] was “inhibited xenograft growth”. For the same substance, the “FSH secretion (plasma FSH levels)” value ([6]; mice with HEK293-FSHR xenografts) was “significantly decreased”, the “FSH secretion (plasma FSH levels)” value ([6]; mice with LNCaP xenografts) was “inhibited FSH secretion” and the “serum ALT vs CTR group” value [7] was “did not affect”. For the same substance, the “serum AST vs CTR group” value [7] was “did not affect”, the “serum GGT vs CTR group” value [7] was “did not affect” and the “proliferation of HEK-293 cells” value [8] was “dose-dependently decreased”. The “proliferation of HEK293-FSHR cells” value [9] was “dose-dependently decreased”, the “proliferation of LNCaP cells” value [10] was “dose-dependently decreased” and the “caspase 3/7 activity in HEK-293 cells” value [11] was “activated”. For the same substance, the “caspase 3/7 activity in HEK293-FSHR cells” value [12] was “activated”, the “caspase 3/7 activity in LNCaP cells” value [13] was “activated” and the “spleen weight / size” value [4] was “increased”. For the same substance, the testis weight [4] was “significantly reduced”.
